Results reported in PMC7578299, “The antiviral effects of baloxavir marboxil against influenza A virus infection in ferrets” (Influenza and Other Respiratory Viruses, 2020).
Values joined by “and” are separate entries in the source; they are usually repeats but may differ in a detail not shown here. Equal entries are not always repeated. Where two headings read alike, the source gives them in different places.

Columns and labels:
[1] = Stability in plasma, human; assay type: in vitro ADME; details: for % Residual in plasma: BXM 200 ng/mL, 37°C, mean of duplicate; for % Residual in plasma Individual value: BXM, duplicates
Procedure: (§1) Approximately 30 mL of blood from Japanese male healthy volunteers was collected and centrifuged to obtain plasma. Blood samples from ferrets, rats, dogs, and monkeys were collected under anesthesia and centrifuged to obtain plasma. BXM was added to reach a final concentration of 200 ng/mL to all pooled plasma samples per species. After incubation for 5, 15, and 30 minutes at 37°C, twofold volume of ice‐cold acetonitrile/methanol (1:1, v/v) was added to the plasma samples to stop further reactions, which were then centrifuged at 1800 g for 10 minutes prior to LC‐MS/MS analysis of BXM in the supernatants.

[2] = Metabolic stability in liver microsomes, human; assay type: in vitro ADME; details: for % Residual in liver microsome: 0.5 mg/mL, 2 μmol/L, 37°C, mean of duplicates; for % Residual in liver microsome Individual value: duplicates
Procedure: (§2) Liver microsomes were prepared from ferrets, rats, dogs, and monkeys, as previously described. ^28 Human liver microsomes were obtained from Sekisui‐XenoTech, LLC and pooled (n = 15). Metabolic stability of the compounds in liver microsomes was tested in duplicate. Oseltamivir and cefcapene pivoxil were used as reference compounds. Liver microsomes at 0.5 mg/mL concentration (final volume of 0.2 mL) were incubated in Tris‐HCl buffer (pH 7.4), containing 50 mmol/L Tris‐HCl, 150 mmol/L KCl, 10 mmol/L MgCl2. The hydrolysis reaction was initiated by applying the test compound solution (final concentration 2 μmol/L). After incubation for 10, 20, and 30 minutes at 37°C, the hydrolysis was terminated by the addition of twofold volume of ice‐cold acetonitrile/methanol (1:1, v/v). Samples were centrifuged at 3000 rpm for 10 minutes prior to LC‐MS/MS analysis of compounds in the supernatants.

Stability in plasma, rat = assay type: in vitro ADME; details: for % Residual in plasma: BXM 200 ng/mL, 37°C, mean of duplicate; for % Residual in plasma Individual value: BXM, duplicates
Procedure: as §1

Stability in plasma, dog = assay type: in vitro ADME; details: for % Residual in plasma: BXM 200 ng/mL, 37°C, mean of duplicate; for % Residual in plasma Individual value: BXM, duplicates
Procedure: as §1

influenza virus = test system: influenza virus; parameters: method as in PMID 30288682; details: patients, cited from earlier work
[3] = Stability in plasma, ferret; assay type: in vitro ADME; details: for % Residual in plasma: BXM 200 ng/mL, 37°C, mean of duplicate; for % Residual in plasma Individual value: BXM, duplicates
Procedure: as §1

[4] = Metabolic stability in liver microsomes, ferret; assay type: in vitro ADME; details: for % Residual in liver microsome / % Residual in liver microsome Individual value: ferret; for % Residual in liver microsome: 0.5 mg/mL, 2 μmol/L, 37°C, mean of duplicates; for % Residual in liver microsome Individual value: duplicates
Procedure: as §2

[5] = test system: Influenza A virus A/Kadoma/3/2006 (H1N1); assay: Experiment 2: infected ferrets, treatment starting at Day 2 p.i. (virus titer in nasal washes, body temperature); details: treatment from Day 2 p.i.; BXM 10 mg/kg twice daily 1 day
[6] = Stability in plasma, monkey; assay type: in vitro ADME; details: for % Residual in plasma: BXM 200 ng/mL, 37°C, mean of duplicate; for % Residual in plasma Individual value: BXM, duplicates
Procedure: as §1

[7] = Pharmacokinetic analysis in ferrets after a single oral administration of BXM; assay type: in vivo, ferret; details: for concentration at 24 h: ferret, oral, read-out: C 24 h; for concentration at 24 h / AUC(0-t) / Cmax / Tmax: plasma; for AUC(0-t) / Cmax / Tmax: po
Procedure: One day prior to administration, group assignment was carried out taking body weight into account. Under isoflurane anesthesia, fasted ferrets (four per group) received BXM (10 or 30 mg/5 mL/kg) suspension orally using an intragastric tube. Blood samples were collected at 0.5, 1, 2, 4, 6, 8, and 24 hours after single oral administration of BXM and centrifuged to obtain plasma. The concentrations of BXA and BXM in plasma were determined by liquid chromatography‐tandem mass spectrometry (LC‐MS/MS). The lower limit of quantification of BXA and BXM in ferret plasma was 0.5 ng/mL. The pharmacokinetic parameters of BXA and BXM were calculated using non‐compartmental analysis module in Phoenix WinNonlin software (version 8.0; Certara LP) (https://onlinehelp.certara.com/phoenix/8.2/topics/nca.htm) based on a non‐compartment model analysis with uniform weighting.

[8] = single oral BXM 10 mg/kg, individual ferrets (Ferret-01 to Ferret-04)
[9] = single oral BXM 30 mg/kg, individual ferrets (Ferret-05 to Ferret-08)

COC(=O)OCOc1c2n(ccc1=O)N([C@@H]1c3ccccc3SCc3c1ccc(F)c3F)[C@@H]1COCCN1C2=O [BXM, Baloxavir marboxil]
% Residual in plasma ([1]; 10 min): 92.3%
% Residual in plasma ([1]; 20 min): 78.6%
% Residual in plasma ([1]; 30 min): 63.9%
% Residual in plasma Individual value ([1]; 10 minutes): 92.7% and 91.8%
% Residual in plasma Individual value ([1]; 20 minutes): 80.0% and 77.1%
% Residual in plasma Individual value ([1]; 30 minutes): 65.3% and 62.6%
% Residual in liver microsome ([2]; 10 min): 8.2%
% Residual in liver microsome ([2]; 20 min): 0.3%
% Residual in liver microsome ([2]; 30 min): 0.0%
% Residual in liver microsome Individual value ([2]; 10 minutes): 8.4% and 8.0%
% Residual in liver microsome Individual value ([2]; 20 minutes): 0.3% and 0.2%
% Residual in liver microsome Individual value ([2]; 30 minutes): 0.0%
% Residual in plasma (Stability in plasma, rat; 10 min): 0.0%
% Residual in plasma (Stability in plasma, rat; 20 min): 0.0%
% Residual in plasma (Stability in plasma, rat; 30 min): 0.0%
% Residual in plasma Individual value (Stability in plasma, rat; 10 minutes): 0.0%
% Residual in plasma Individual value (Stability in plasma, rat; 20 minutes): 0.0%
% Residual in plasma Individual value (Stability in plasma, rat; 30 minutes): 0.0%
% Residual in plasma (Stability in plasma, dog; 10 min): 91.6%
% Residual in plasma (Stability in plasma, dog; 20 min): 79.7%
% Residual in plasma (Stability in plasma, dog; 30 min): 75.6%
% Residual in plasma Individual value (Stability in plasma, dog; 10 minutes): 97.0% and 86.3%
% Residual in plasma Individual value (Stability in plasma, dog; 20 minutes): 79.0% and 80.5%
% Residual in plasma Individual value (Stability in plasma, dog; 30 minutes): 74.9% and 76.3%
time within which infectious virus titers declined (influenza virus; single weight-based oral dose 40 or 80 mg): ≤ 1 days
time to alleviation of symptoms (in words) (influenza virus; vs placebo and OSP): superior compared with placebo but not significantly different from the effect of OSP treatment
% Residual in plasma ([3]; 10 min): 94.7%
% Residual in plasma ([3]; 20 min): 90.4%
% Residual in plasma ([3]; 30 min): 77.4%
% Residual in plasma Individual value ([3]; 10 minutes): 94.0% and 95.4%
% Residual in plasma Individual value ([3]; 20 minutes): 90.0% and 90.9%
% Residual in plasma Individual value ([3]; 30 minutes): 77.3% and 77.5%
stability in liver microsomes (in words) ([4]; ferret liver microsomes): stable
% Residual in liver microsome ([4]; 10 min): 98.5%
% Residual in liver microsome ([4]; 20 min): 98.1%
% Residual in liver microsome ([4]; 30 min): 90.8%
% Residual in liver microsome Individual value ([4]; 10 minutes): 97.0% and 99.9%
% Residual in liver microsome Individual value ([4]; 20 minutes): 98.3% and 97.9%
% Residual in liver microsome Individual value ([4]; 30 minutes): 87.4% and 94.2%
body temperature changes over time (in words) [5]: a small but significant effect was observed with BXM compared with vehicle on Day 2
% Residual in plasma ([6]; 10 min): 82.9%
% Residual in plasma ([6]; 20 min): 71.8%
% Residual in plasma ([6]; 30 min): 55.5%
% Residual in plasma Individual value ([6]; 10 minutes): 81.5% and 84.4%
% Residual in plasma Individual value ([6]; 20 minutes): 71.3% and 72.3%
% Residual in plasma Individual value ([6]; 30 minutes): 56.3% and 54.7%
concentration at 24 h ([7]; 10 mg/kg, single oral BXM 10 mg/kg, 5% SDS water vehicle, mean of four ferrets): 28.6 ± 30.4 ng/mL
concentration at 24 h ([7]; 10 mg/kg, single oral BXM 10 mg/kg, mean of four ferrets): 50.1 ± 53.3 nM
concentration at 24 h ([7]; 30 mg/kg, single oral BXM 30 mg/kg, 5% SDS water vehicle, mean of four ferrets): 36.1 ± 12.3 ng/mL
concentration at 24 h ([7]; 30 mg/kg, single oral BXM 30 mg/kg, mean of four ferrets): 63.1 ± 21.5 nM
AUC(0-t) ([7]; 10 mg/kg, single oral BXM 10 mg/kg, 5% SDS water vehicle, mean of four ferrets, read-out: AUC0-24 h): 715 ± 758 ng·h/mL
Cmax ([7]; 10 mg/kg, single oral BXM 10 mg/kg, 5% SDS water vehicle, mean of four ferrets, read-out: C max): 165 ± 179 ng/mL
Tmax ([7]; 10 mg/kg, single oral BXM 10 mg/kg, 5% SDS water vehicle, mean of four ferrets, read-out: T max): 1.13 ± 0.63 h
AUC(0-t) ([7]; 10 mg/kg, single oral BXM 10 mg/kg, mean of four ferrets, read-out: AUC0-24 h): 1.25 ± 1.33 µM·h
Cmax ([7]; 10 mg/kg, single oral BXM 10 mg/kg, mean of four ferrets, read-out: C max): 289 ± 312 nM
AUC(0-t) ([7]; 30 mg/kg, single oral BXM 30 mg/kg, 5% SDS water vehicle, mean of four ferrets, read-out: AUC0-24 h): 1260 ± 150 ng·h/mL
Cmax ([7]; 30 mg/kg, single oral BXM 30 mg/kg, 5% SDS water vehicle, mean of four ferrets, read-out: C max): 298 ± 88 ng/mL
Tmax ([7]; 30 mg/kg, single oral BXM 30 mg/kg, 5% SDS water vehicle, mean of four ferrets, read-out: T max): 0.875 ± 0.25 h
AUC(0-t) ([7]; 30 mg/kg, single oral BXM 30 mg/kg, individual ferrets (Ferret-05 to Ferret-08), read-out: AUC0-24hr, individual data): 1450 ng·h/mL
Cmax ([7]; 30 mg/kg, single oral BXM 30 mg/kg, individual ferrets (Ferret-05 to Ferret-08), read-out: Cmax, individual data): 392 ng/mL
Tmax ([7]; 30 mg/kg, single oral BXM 30 mg/kg, individual ferrets (Ferret-05 to Ferret-08), read-out: Tmax, individual data): 1 h
AUC(0-t) ([7]; 30 mg/kg, single oral BXM 30 mg/kg, mean of four ferrets, read-out: AUC0-24 h): 2.21 ± 0.25 µM·h
Cmax ([7]; 30 mg/kg, single oral BXM 30 mg/kg, mean of four ferrets, read-out: C max): 522 ± 154 nM
C 24 h ([7]; single oral BXM 10 mg/kg, 5% SDS water vehicle, mean of four ferrets): 28.6 ng/mL
AUC0-24hr, individual data [7, 8]: 174 ng·h/mL and 539 ng·h/mL and 318 ng·h/mL and 1830 ng·h/mL
C24hr, individual data [7, 8]: 3.59 ng/mL and 35.0 ng/mL and 6.75 ng/mL and 69.0 ng/mL
Cmax, individual data [7, 8]: 101 ng/mL and 79.2 ng/mL and 48.6 ng/mL and 431 ng/mL
Tmax, individual data [7, 8]: 0.500 h and 2.00 h
C 24 h ([7]; single oral BXM 30 mg/kg, 5% SDS water vehicle, mean of four ferrets): 36.1 ng/mL
AUC0-24hr, individual data [7, 9]: 1200 ng·h/mL and 1110 ng·h/mL and 1290 ng·h/mL
C24hr, individual data [7, 9]: 22.7 ng/mL and 48.5 ng/mL and 28.7 ng/mL and 44.3 ng/mL
Cmax, individual data [7, 9]: 353 ng/mL and 214 ng/mL and 233 ng/mL
Tmax, individual data [7, 9]: 0.500 h
